# Like-named read-outs stand apart in the source and are kept apart here.
# Experiments:
# [1] = system: M. tuberculosis H37Rv; conditions: whole cell, cited from earlier work
# [2] = system: Mycobacterium tuberculosis H37Ra ITM-M006710 (ATCC 9431); test: Antimycobacterial MIC, microdilution broth / Alamar Blue (resazurin); type: cell-based; conditions: Mycobacterium tuberculosis
# [3] = system: M. smegmatis DSM 43465 (ATCC 607); test: Antimycobacterial MIC, microdilution broth / resazurin; type: cell-based; conditions: Mycolicibacterium smegmatis, read-out: MIC M. smegmatis
# [4] = system: M. aurum DSM 43999 (ATCC 23366); test: as above; type: cell-based; conditions: Mycolicibacterium aurum, read-out: MIC M. aurum
# [5] = system: M. avium DSM 44156 (ATCC 25291); test: as above; type: cell-based, Mycobacterium avium; conditions: Mycobacterium avium, read-out: MIC M. avium
# [6] = system: M. kansasii DSM 44162 (ATCC 12478); test: as above; type: cell-based; conditions: Mycobacterium kansasii, read-out: MIC M. kansasii
# [7] = system: Mtb H37Rv CNCTC My 331/88 (ATCC 27294); test: microbe, parasite or virus in culture; type: cell-based; conditions: Mycobacterium tuberculosis, read-out: MIC Mtb H37Rv
# [8] = RP-UHPLC lipophilicity parameter log k’w; type: physicochemical; conditions: for log k’w: RP-UHPLC, acetonitrile/water, log k extrapolated to 0% acetonitrile; for logkw: experimental lipophilicity parameter
# How it was run: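 log k’w from isocratic RP-UHPLC with an acetonitrile/water mobile phase, using 40, 45 and 50% acetonitrile for subtype I and 20, 30 and 40% for subtype II. A single run was made at each mobile-phase composition.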
# [9] = system: HepG2 cells; test: HepG2 cytotoxicity screening (CellTiter 96); type: cell-based, human; conditions: for IC50: Homo sapiens, HepG2, 24 h, 24 h incubation, CellTiter 96, * above highest tested concentration, ** limited by insolubility in medium; for SI: SI = IC50 (µM) HepG2 / MICH37Ra (µM)
# [10] = system: Mtb IZAK (MDR clinical isolate); test: microbe, parasite or virus in culture; type: cell-based; conditions: Mycobacterium tuberculosis, read-out: MIC Mtb IZAK
# [11] = system: Mtb MATI (MDR clinical isolate); test: microbe, parasite or virus in culture; type: cell-based; conditions: Mycobacterium tuberculosis, read-out: MIC Mtb MATI
# [12] = Kinetic water solubility (water-induced precipitation of DMSO stock, UHPLC); type: physicochemical; conditions: 18 °C, water
# Description: A low value of log P is often presumed to be related to increased water solubility, although this might not always be the case since log P is a measure of relative solubility of the compound in the lipophilic and hydrophilic solvents (at equilibrium). Therefore, to be sure, we tested whether the lowered log k’w (related to log P) of the oxazole derivatives would also translate to increased solubility in water in a few representative derivatives. The water solubility of selected compounds was assessed by the kinetic method based on water-induced precipitation of DMSO stock solutions of tested compounds due to reasons described by Azzali and colleagues.
# Water solubility was investigated using the kinetic solubility method. The sample (1 mg) was dissolved in the smallest amount of DMSO needed, 25 or 50 μL for subtype I and subtype II compounds, respectively. The samples were mixed at 18 °C in a thermomixer (Thermomixer comfort, Eppendorf, Hamburg, Germany) for 1 h. After mixing, the samples were diluted with water to a concentration of 500 μM, and the precipitate was observed. The sample was filtered through a 0.22 μm filter and diluted to be evaluated by UHPLC. The log S parameter was calculated from the experimental solubility in molar concentration. The samples were measured using the same instrument, software, and column as used in the purity evaluation.
# [13] = system: Staphylococcus aureus subsp. aureus CCM 4223 (ATCC 29213); test: Antibacterial microdilution broth (EUCAST); type: cell-based; conditions: Staphylococcus aureus
# [14] = system: Staphylococcus aureus subsp. aureus (MRSA) CCM 4750 (ATCC 43300); test: Antibacterial microdilution broth (EUCAST); type: cell-based; conditions: Staphylococcus aureus
# [15] = system: Staphylococcus epidermidis CCM 4418 (ATCC 12228); test: Antibacterial microdilution broth (EUCAST); type: cell-based; conditions: Staphylococcus epidermidis
# [16] = system: Enterococcus faecalis CCM 4224 (ATCC 29212); test: Antibacterial microdilution broth (EUCAST); type: cell-based; conditions: Enterococcus faecalis
# [17] = system: Escherichia coli CCM 3954 (ATCC 25922); test: Antibacterial microdilution broth (EUCAST); type: cell-based; conditions: Escherichia coli
# [18] = system: Acinetobacter baumannii DSM 30007 (ATCC 19606); test: Antibacterial microdilution broth (EUCAST); type: cell-based; conditions: Acinetobacter baumannii
# [19] = system: Pseudomonas aeruginosa CCM 3955 (ATCC 27853); test: Antibacterial microdilution broth (EUCAST); type: cell-based; conditions: Pseudomonas aeruginosa
# [20] = system: Candida albicans CCM 8320 (ATCC 24433); test: Antifungal microdilution broth (EUCAST); conditions: Candida albicans, 24 h, read-out: MIC CA
# [21] = system: Candida krusei CCM 8271 (ATCC 6258); test: Antifungal microdilution broth (EUCAST); conditions: Pichia kudriavzevii, 24 h, read-out: MIC CK
# [22] = system: Candida parapsilosis CCM 8260 (ATCC 22019); test: Antifungal microdilution broth (EUCAST); conditions: Lodderomyces parapsilosis, 24 h, read-out: MIC CP
# [23] = system: Candida tropicalis CCM 8264 (ATCC 750); test: Antifungal microdilution broth (EUCAST); conditions: Candida tropicalis, 24 h, read-out: MIC CT
# [24] = system: Aspergillus fumigatus ATCC 204305; test: Antifungal microdilution broth (EUCAST); conditions: Aspergillus fumigatus, ATCC204305, 24 h, read-out: MIC AF
# [25] = system: Aspergillus flavus CCM 8363; test: Antifungal microdilution broth (EUCAST); conditions: Aspergillus flavus, CCM8363, 24 h, read-out: MIC AFla
# [26] = system: Lichtheimia corymbifera CCM 8077; test: Antifungal microdilution broth (EUCAST); conditions: Lichtheimia corymbifera, CCM8077, 24 h, read-out: MIC LC
# [27] = system: Trichophyton interdigitale CCM 8377 (ATCC 9533); test: Antifungal microdilution broth (EUCAST); conditions: Trichophyton interdigitale, 72 h, read-out: MIC TI
# [28] = system: Mtb laboratory ID IZAK; type: cell-based, Mycobacterium tuberculosis; conditions: MDR strain IZAK, CLSI breakpoints 2020
# [29] = system: Mtb laboratory ID MATI; type: cell-based, Mycobacterium tuberculosis; conditions: MDR strain MATI, CLSI breakpoints 2021
# [30] = system: Klebsiella pneumoniae CCM 4415 (ATCC 10031); test: Antibacterial microdilution broth (EUCAST); type: cell-based; conditions: internal quality control, 24 h
# [31] = 120 h, Middlebrook 7H9, resazurin after 120 h, read-out: Mtb H37Ra MIC
# [32] = recalculated from µg/mL, read-out: MICH37Ra
# [33] = 24h incubation, read-out: MIC SA
# [34] = 24h incubation, read-out: MIC MRSA
# [35] = 24h incubation, read-out: MIC SE
# [36] = 24h incubation, read-out: MIC EF
# [37] = 24h incubation, read-out: MIC EC
# [38] = 24h incubation, read-out: MIC AB
# [39] = 72h incubation, read-out: MIC PA
# [40] = internal quality control, 95% growth inhibition, 530 nm, 24 h, read-out: MIC (spectrophotometric detection)
# [41] = internal quality control, naked eye, 24 h, read-out: MIC (visual detection)
smiles,measurement,setting,value
O=C(Nc1nc(-c2ccc(F)cc2)cs1)c1cncc(Cl)n1 [A],MIC,[1]; recalculated to µM,2.3 µM
same,MIC,[1],0.78 µg/mL
O=C(Nc1nc(-c2ccccn2)cs1)c1ccncc1 [B],MIC,[1],1.6 to 3.1 µM
"O=C(O)c1cn(C2CC2)c2cc(N3CCNCC3)c(F)cc2c1=O [CIP, ciprofloxacin, reference compound]",MIC,[2]; [31],0.25 µg/mL
same,MIC,[3]; resazurin after 48 h,0.125 µg/mL
same,MIC,[4]; resazurin after 72 h,0.0156 µg/mL
same,MIC,[5]; resazurin after 96 h,0.25 to 0.5 µg/mL
same,MIC,[6]; resazurin after 96 h,0.25 µg/mL
same,MIC,[7],0.2 µg/mL
O=C(Nc1ncco1)c1ccnc(Cl)c1 [Compound 6b],log k’w,[8],1.136
same,logkw,[8],1.136
same,IC50,[9],664 µM
same,SI,[9],47.5
same,MIC,[2]; [31],3.12 µg/mL
same,MIC,[2]; [32],14 µM
same,MIC,[3]; 48 h,6.25 µg/mL
same,MIC,[4]; 72 h,3.12 µg/mL
same,MIC,[5]; 96 h,3.12 µg/mL
same,MIC,[6]; 96 h,3.12 µg/mL
same,MIC,[7],6.25 µg/mL
same,MIC,[10],3.13 µg/mL
same,MIC,[11],3.13 µg/mL
same,solubility,"[12]; water (DMSO stock diluted with water), kinetic from dmso stock, read-out: solubility in water",> 500 µM
same,solubility,"[12]; kinetic method, DMSO stock diluted to 500 μM",no precipitate
same,MIC,[13]; [33],250 µM
same,MIC,[14]; [34],62.5 µM
same,MIC,[15]; [35],62.5 µM
same,MIC,[16]; [36],500 µM
same,MIC,[17]; [37],62.5 µM
same,MIC,[18]; [38],62.5 µM
same,MIC,[19]; [39],> 500 µM
same,melting point,,158 to 162 °C
same,MIC,[20],31.2 µM
same,MIC,[21],250 µM
same,MIC,[22],250 µM
same,MIC,[23],500 µM
same,MIC,[24],125 µM
same,MIC,[25],500 µM
same,MIC,[26],62.5 µM
same,MIC,[27],125 µM
Cc1cc(C(=O)Nc2ncco2)cc(Cl)n1 [Compound 7b],log k’w,[8],1.430
same,logkw,[8],1.43
same,IC50,[9],959 µM
same,SI,[9],>58.3
same,MIC,[2]; [31],< 3.91 µg/mL
same,MIC,[2]; [32],< 16.5 µM
same,MIC,[3]; resazurin after 48 h,7.81 µg/mL
same,MIC,[4]; resazurin after 72 h,3.91 µg/mL
same,MIC,[5]; resazurin after 96 h,3.91 µg/mL
same,MIC,[6]; resazurin after 96 h,7.81 µg/mL
same,MIC,[7],6.25 µg/mL
same,MIC,[10],3.13 µg/mL
same,MIC,[11],3.13 µg/mL
same,MIC,[13]; [33],62.5 µM
same,MIC,[14]; [34],125 µM
same,MIC,[15]; [35],125 µM
same,MIC,[16]; [36],500 µM
same,MIC,[17]; [37],250 µM
same,MIC,[18]; [38],500 µM
same,MIC,[19]; [39],> 500 µM
same,melting point,,149 to 153 °C
same,MIC,[20],125 µM
same,MIC,[21],500 µM
same,MIC,[22],500 µM
same,MIC,[23],> 500 µM
same,MIC,[24],250 µM
same,MIC,[25],> 500 µM
same,MIC,[26],125 µM
same,MIC,[27],125 µM
"CC[C@@H](CO)NCCN[C@@H](CC)CO [EMB, ethambutol]",MIC,[7],0.39 µg/mL
same,MIC,[10],1.56 µg/mL
same,MIC,[11],1.56 µg/mL
same,Concentration (susceptibility profile),[28],0.5 µg/mL
same,Susceptibility,[28],sensitive
same,Concentration (susceptibility profile),[29],0.5 µg/mL
same,Susceptibility,[29],sensitive
"NNC(=O)c1ccncc1 [INH, isoniazid, reference compound]",MIC,[2]; [31],0.25 µg/mL
same,MIC,[3]; resazurin after 48 h,15.6 to 31.2 µg/mL
same,MIC,[4]; 72 h,3.91 µg/mL
same,MIC,[5]; resazurin after 96 h,1000 µg/mL
same,MIC,[6]; resazurin after 96 h,3.12 to 6.25 µg/mL
same,MIC,[7],0.39 µg/mL
same,MIC,[10],12.5 µg/mL
same,MIC,[11],12.5 µg/mL
same,Susceptibility,[29],resistant
"CO[C@H]1/C=C/O[C@@]2(C)Oc3c(C)c(O)c4c(O)c(c(/C=N/N5CCN(C)CC5)c(O)c4c3C2=O)NC(=O)/C(C)=C\C=C\[C@H](C)[C@H](O)[C@@H](C)[C@@H](O)[C@@H](C)[C@H](OC(C)=O)[C@@H]1C [RIF, rifampicin]",MIC,[3]; resazurin after 48 h,12.5 µg/mL
same,MIC,[4]; resazurin after 72 h,0.39 µg/mL
same,MIC,[6]; resazurin after 96 h,0.025 µg/mL
same,Concentration (susceptibility profile),[28],> 8 µg/mL
same,Susceptibility,[28],resistant
same,Concentration (susceptibility profile),[29],> 8 µg/mL
same,Susceptibility,[29],resistant
"CNC(C)C1CCC(N)C(OC2C(N)CC(N)C(OC3OCC(C)(O)C(NC)C3O)C2O)O1 (stereo not drawn) [gentamicin, reference compound]",MIC,[13]; [40],1 µg/mL
same,MIC,[13]; [41],0.5 µg/mL
same,MIC,[14]; [40],> 8 µg/mL
same,MIC,[14]; [41],> 8 µg/mL
same,MIC,[15]; [40],0.0625 µg/mL
same,MIC,[15]; [41],0.0625 µg/mL
same,MIC,[16]; [40],> 8 µg/mL
same,MIC,[16]; [41],> 8 µg/mL
same,MIC,[17]; [40],1 µg/mL
same,MIC,[17]; [41],1 µg/mL
same,MIC,"[30]; 95% growth inhibition, 530 nm, read-out: MIC (spectrophotometric detection)",0.5 µg/mL
same,MIC,"[30]; naked eye, read-out: MIC (visual detection)",0.5 µg/mL
same,MIC,[18]; [40],8 µg/mL
same,MIC,[18]; [41],8 µg/mL
same,MIC,[19]; [40],0.5 µg/mL
same,MIC,[19]; [41],0.5 µg/mL

# Reference: article PMC9143880, “Improving Antimicrobial Activity and Physico-Chemical Properties by Isosteric Replacement of 2-Aminothiazole with 2-Aminooxazole” (Pharmaceuticals, 2022)
